Experimental data taken from ChEMBL document CHEMBL1153122, “Pyrazolone based TGFbetaR1 kinase inhibitors” (Bioorg Med Chem Lett, 2010).

What was measured:
[1] = organism: Mus musculus; assay: animal or person; conditions: BALB/c, po, 1 h, read-out: INH
[2] = Oral bioavailability in rat at 5 mg/kg; type: ADME, organism-based; conditions: in vivo
[3] = Half life in rat at 5 mg/kg, po and iv; type: ADME, organism-based; parameters: dose 5 mg/kg, route oral; conditions: in vivo

bioavailability [2]: 34% | half-life [3]: 3 h
Structure (SMILES): Cn1c(-c2ccc3nccnc3c2)c(-c2cccc(Br)c2)c(=O)n1C
inhibition in vivo at 3 mg/kg [1]: 43%
